15 molecules from patent US9505749B2, “Quinazolinone compounds and derivatives thereof” (AMGEN INC., priority 2012, dated 2016) can be followed below.

Each structure is given as a SMILES string.

The target in test [1] is 6×HIS-tankyrase1 (1091-1325) (Homo sapiens (Human), UniProt O95271). In words: Tankyrase 1 biochemical assay (AlphaLisa, PARsylation). The conditions noted are these: 400 nM NAD, 60 minutes at RT; read-out: TNKS1 IC50. Background: Alpha assays give light when donor and acceptor beads are brought close together.
6×HIS-tankyrase1 (1091-1325), sequence (O95271 1091-1325): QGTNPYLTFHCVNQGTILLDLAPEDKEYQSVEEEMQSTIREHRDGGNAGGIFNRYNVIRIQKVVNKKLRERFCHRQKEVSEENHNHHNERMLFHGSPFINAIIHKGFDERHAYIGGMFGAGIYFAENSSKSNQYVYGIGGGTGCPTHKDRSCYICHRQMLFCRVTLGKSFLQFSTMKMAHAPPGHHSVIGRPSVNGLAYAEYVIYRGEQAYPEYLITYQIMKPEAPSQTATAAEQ
For test [2], the target named is 6×HIS-tankyrase 2 (946-1162) (Homo sapiens (Human), UniProt Q9H2K2). In words: Tankyrase 2 biochemical assay (AlphaLisa, PARsylation). The conditions noted are these: 250 nM NAD; read-out: TNKS2 IC50.
6×HIS-tankyrase 2 (946-1162), sequence (Q9H2K2 946-1162): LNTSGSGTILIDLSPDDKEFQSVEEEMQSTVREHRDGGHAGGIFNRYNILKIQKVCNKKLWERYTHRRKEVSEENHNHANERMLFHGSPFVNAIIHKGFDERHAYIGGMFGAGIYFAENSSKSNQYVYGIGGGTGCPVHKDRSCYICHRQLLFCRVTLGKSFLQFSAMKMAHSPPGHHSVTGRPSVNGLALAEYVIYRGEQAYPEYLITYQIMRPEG
The test system of test [3] is Axin2 accumulation in SW480 cells. In words: Axin2 384 immunofluorescence assay. Type of test: cell-based. As to conditions: Homo sapiens; SW480 cells, 24 hours; read-out: Axin2 384 IF EC50.
A further test has as its target PARP1 (Homo sapiens (Human), UniProt P09874). In words: PARP1 biochemical assay (Trevigen kit). The text has this:
PARP1 biochemical assay was purchased as a kit from Trevigen (cat.#4676-096-K) and used per manufacturers recommendations.

The target of a further test is PARP2 (Homo sapiens (Human), UniProt Q9UGN5). In words: PARP2 biochemical assay (BPS kit).
PARP2, sequence (Q9UGN5 whole entry): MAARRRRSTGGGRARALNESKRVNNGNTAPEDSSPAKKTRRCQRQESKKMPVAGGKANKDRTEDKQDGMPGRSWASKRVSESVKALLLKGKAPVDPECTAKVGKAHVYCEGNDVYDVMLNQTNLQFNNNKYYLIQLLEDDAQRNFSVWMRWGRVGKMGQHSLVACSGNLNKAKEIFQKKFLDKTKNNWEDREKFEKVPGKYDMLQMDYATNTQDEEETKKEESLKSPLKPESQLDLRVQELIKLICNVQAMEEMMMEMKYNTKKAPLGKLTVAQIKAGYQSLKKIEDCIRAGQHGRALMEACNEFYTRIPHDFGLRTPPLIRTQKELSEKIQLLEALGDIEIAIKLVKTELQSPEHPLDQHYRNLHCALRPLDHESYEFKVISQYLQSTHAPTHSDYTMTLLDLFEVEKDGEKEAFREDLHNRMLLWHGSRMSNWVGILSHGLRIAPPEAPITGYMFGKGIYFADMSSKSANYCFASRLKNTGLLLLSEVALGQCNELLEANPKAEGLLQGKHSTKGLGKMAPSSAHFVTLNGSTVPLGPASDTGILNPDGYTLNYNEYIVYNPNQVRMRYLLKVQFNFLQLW
In test [4] the test system is total β-catenin in SW480 colorectal cells. In words: Total β-catenin MSD 96-well plate assay for SW480 cells. As to conditions: Homo sapiens, SW480, read-out: SW480-Total beta-catenin (TBC) IC50 IP.

PARP1, sequence (P09874 whole entry): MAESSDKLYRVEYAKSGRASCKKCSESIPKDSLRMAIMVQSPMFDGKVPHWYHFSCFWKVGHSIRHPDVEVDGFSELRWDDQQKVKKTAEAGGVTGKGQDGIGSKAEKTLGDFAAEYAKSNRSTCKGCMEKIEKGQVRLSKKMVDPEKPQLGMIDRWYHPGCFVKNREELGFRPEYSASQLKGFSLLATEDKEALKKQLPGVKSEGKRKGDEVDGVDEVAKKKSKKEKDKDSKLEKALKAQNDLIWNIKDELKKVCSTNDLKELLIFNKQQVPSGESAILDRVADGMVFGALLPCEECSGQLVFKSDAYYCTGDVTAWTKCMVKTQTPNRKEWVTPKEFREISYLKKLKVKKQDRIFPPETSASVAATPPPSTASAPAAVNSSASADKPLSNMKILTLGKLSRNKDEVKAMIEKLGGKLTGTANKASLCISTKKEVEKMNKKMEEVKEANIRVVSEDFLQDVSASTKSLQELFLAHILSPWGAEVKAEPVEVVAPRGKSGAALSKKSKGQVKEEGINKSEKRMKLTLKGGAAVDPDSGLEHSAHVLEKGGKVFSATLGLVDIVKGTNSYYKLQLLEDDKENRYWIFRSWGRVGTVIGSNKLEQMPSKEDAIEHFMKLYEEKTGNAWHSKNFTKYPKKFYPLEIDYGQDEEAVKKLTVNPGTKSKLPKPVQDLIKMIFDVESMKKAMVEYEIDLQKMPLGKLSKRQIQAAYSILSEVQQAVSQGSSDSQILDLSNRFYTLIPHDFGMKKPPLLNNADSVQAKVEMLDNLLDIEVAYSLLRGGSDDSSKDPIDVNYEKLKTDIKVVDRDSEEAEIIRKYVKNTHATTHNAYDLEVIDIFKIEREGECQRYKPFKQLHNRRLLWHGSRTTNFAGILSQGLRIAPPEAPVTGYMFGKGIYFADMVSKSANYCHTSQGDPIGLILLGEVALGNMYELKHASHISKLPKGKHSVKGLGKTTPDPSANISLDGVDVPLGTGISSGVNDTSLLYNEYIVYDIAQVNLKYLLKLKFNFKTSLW

The IC50 is the point on the concentration scale where inhibition reaches its midpoint. For orientation: EC50 means the concentration that produces a half-maximal response. Consider `O=C(CCCc1nc2ccccc2c(=O)[nH]1)N1CCN(c2n[nH]c3ccccc23)CC1` [Example 55, 2-(4-(4-(1H-indazol-3-yl)-1-piperazinyl)-4-oxobutyl)-4(3H)-quinazolinone], for which the half-inhibitory concentration (IC50) in test [1] was determined as 1.76 nM; in test [2], 0.401 nM; against PARP1, 1800 nM; on PARP2, 284 nM; in test [4], 46.5 nM. The EC50 in test [3] came to 193 nM.
Regarding `COc1cccc(-c2nnc([C@H]3CC[C@H](NC(=O)CCCc4nc5ccccc5c(=O)[nH]4)CC3)o2)c1` [Example 32, N-(trans-4-(5-(3-methoxyphenyl)-1,3,4-oxadiazol-2-yl)cyclohexyl)-4-(4-oxo-3,4-dihydro-2-quinazolinyl)butanamide], the 50% inhibitory concentration (IC50) in test [1] was 0.495 nM; in test [2], 0.301 nM; against PARP1, 801 nM; against PARP2, 828 nM; in test [4] it was 15.7 nM. In test [3], the half-maximal effective concentration (EC50) amounted to 32.5 nM.
Take `N#Cc1cccc(O[C@H]2CC[C@H](NC(=O)CCCc3nc4ccccc4c(=O)[nH]3)CC2)c1` [Example 58, N-(trans-4-(3-cyanophenoxy)cyclohexyl)-4-(4-oxo-3,4-dihydro-2-quinazolinyl)butanamide]: the IC50 in test [1] was determined as 3.26 nM; in test [2], 1.25 nM; at PARP1, 1580 nM; against PARP2, 983 nM; in test [4], 98.9 nM. In addition, the concentration for a half-maximal effect (EC50) in test [3] was 354 nM.
On to `O=C(CCCc1nc2ccccc2c(=O)[nH]1)N[C@H]1CC[C@H](Oc2ccc(F)cc2)CC1` [Example 77, N-(trans-4-(4-fluorophenoxy)cyclohexyl)-4-(4-oxo-3,4-dihydro-2-quinazolinyl)butanamide], for which the IC50 in test [1] came to 4.37 nM; in test [2], 0.601 nM; against PARP1, 1710 nM; at PARP2, 1820 nM; in test [4], 119 nM. In addition, in test [3], the EC50 stood at 601 nM.
In the case of `O=C(CCCc1nc2ccccc2c(=O)[nH]1)N1CCC(n2c(=O)oc3cc(F)ccc32)CC1` [Example 53, 2-(4-(4-(6-fluoro-2-oxo-1,3-benzoxazol-3(2H)-yl)-1-piperidinyl)-4-oxobutyl)-4(3H)-quinazolinone trifluoroacetic acid], the half-maximal inhibitory concentration (IC50) was determined as 3.17 nM in test [1]; 0.593 nM in test [2]; 2570 nM against PARP1; 998 nM against PARP2; 50.3 nM in test [4]. In test [3], the half-maximal effective concentration (EC50) came to 359 nM.
As to `O=C(CCCc1nc2ccccc2c(=O)[nH]1)N1CCC(c2nnc(-c3ccccc3F)o2)CC1` [Example 18, 2-(4-(4-(5-(2-fluorophenyl)-1,3,4-oxadiazol-2-yl)-1-piperidinyl)-4-oxobutyl)-4(3H)-quinazolinone], the IC50 in test [1] was 54.4 nM; in test [2], 20.9 nM; against PARP1, 4470 nM; against PARP2, 1120 nM; in test [4], 760 nM. For the same molecule, the 50% effective concentration (EC50) in test [3] stood at 732 nM.
On to `O=C(CCCc1nc2ccccc2c(=O)[nH]1)N1CCC(c2nnc(-c3cccc(Cl)c3)o2)CC1` [Example 3, 2-(4-(4-(5-(3-chlorophenyl)-1,3,4-oxadiazol-2-yl)-1-piperidinyl)-4-oxobutyl)-4(3H)-quinazolinone], for which the 50% inhibitory concentration (IC50) in test [1] came to 11 nM; in test [2], 2.54 nM; against PARP1, 3050 nM; against PARP2, 414 nM; in test [4] it was 41.7 nM. The EC50 in test [3] is 260 nM.
Take `O=C(CCCc1nc2ccccc2c(=O)[nH]1)N[C@H]1CC[C@H](Oc2ccccn2)CC1` [Example 56, 4-(4-oxo-3,4-dihydro-2-quinazolinyl)-N-(trans-4-(2-pyridinyloxyl)cyclohexyl)butanamide]: the IC50 in test [1] amounted to 2.51 nM; in test [2], 0.719 nM; on PARP1, 5820 nM; at PARP2, 1100 nM; in test [4] it was 73.6 nM. Further, in test [3], the EC50 was 266 nM.
For the molecule `O=C(CCCc1nc2ccccc2c(=O)[nH]1)N1CCC(c2nnc(-c3cccc(F)c3)o2)CC1` [Example 5, 2-(4-(4-(5-(3-fluorophenyl)-1,3,4-oxadiazol-2-yl)-1-piperidinyl)-4-oxobutyl)-4(3H)-quinazolinone], the IC50 in test [1] is 31.8 nM; in test [2] it was 4.84 nM; against PARP1, 3760 nM; against PARP2, 2350 nM; in test [4], 92.2 nM. In addition, the EC50 in test [3] amounted to 771 nM.
For `O=C(CCCc1nc2ccccc2c(=O)[nH]1)N1CCC(c2nnc(-c3ccccc3Cl)o2)CC1` [Example 16, 2-(4-(4-(5-(2-chlorophenyl)-1,3,4-oxadiazol-2-yl)-1-piperidinyl)-4-oxobutyl)-4(3H)-quinazolinone], the half-maximal inhibitory concentration (IC50) in test [1] was found to be 107 nM; in test [2], 17.9 nM; against PARP1, 5070 nM; against PARP2, 560 nM; in test [4], 1190 nM. The EC50 in test [3] was 1900 nM.
Take `N#Cc1cccc2c1[nH]c(=O)n2C1CCN(C(=O)CCCc2nc3ccccc3c(=O)[nH]2)CC1` [Example 61, 2-oxo-1-(1-(4-(4-oxo-3,4-dihydro-2-quinazolinyl)butanoyl)-4-piperidinyl)-2,3-dihydro-1H-benzimidazole-4-carbonitrile]: the 50% inhibitory concentration (IC50) in test [1] is 0.873 nM; in test [2], 0.206 nM; at PARP1, 464 nM; against PARP2, 349 nM; in test [4], 302 nM. In addition, the EC50 in test [3] was 217 nM.
With `O=C(CCCc1nc2ccccc2c(=O)[nH]1)N1CCC(n2c(=O)oc3ccccc32)CC1` [Example 44, 2-(4-oxo-4-(4-(2-oxo-1,3-benzoxazol-3(2H)-yl)-1-piperidinyl)butyl)-4(3H)-quinazolinone], the IC50 worked out at 8.97 nM in test [1]; 3.53 nM in test [2]; 7610 nM on PARP1; 363 nM against PARP2; 681 nM in test [4]. Also, the concentration for a half-maximal effect (EC50) in test [3] was determined as 2930 nM.
Consider `Cn1c(=O)n(C2CCN(C(=O)CCCc3nc4ccccc4c(=O)[nH]3)CC2)c2ccccc21` [Example 54, 2-(4-(4-(3-methyl-2-oxo-2,3-dihydro-1H-benzimidazol-1-yl)-1-piperidinyl)-4-oxobutyl)-4(3H)-quinazolinone], for which the 50% inhibitory concentration (IC50) amounted to 39.1 nM in test [1]; 17 nM in test [2]; 3200 nM at PARP1; 673 nM against PARP2; 1120 nM in test [4]. Further, in test [3], the 50% effective concentration (EC50) is 3630 nM.
`O=C(CCCc1nc2ccccc2c(=O)[nH]1)N1CCN(c2nsc3ccccc23)CC1` [Example 69, 2-(4-(4-(1,2-benzisothiazol-3-yl)-1-piperazinyl)-4-oxobutyl)-4(3H)-quinazolinone]: the IC50 came to 407 nM in test [1]; 451 nM in test [2]; 1760 nM on PARP1; 317 nM on PARP2; 2560 nM in test [4]. Besides, the half-maximal effective concentration (EC50) in test [3] stood at 686 nM.
In the case of `O=C(CCCc1nc2ccccc2c(=O)[nH]1)N1CCC(c2nnc(-c3ccccc3)s2)CC1` [Example 9, 2-(4-oxo-4-(4-(5-phenyl-1,3,4-thiadiazol-2-yl)-1-piperidinyl)butyl)-4(3H)-quinazolinone], the IC50 in test [1] turned out to be 168 nM; in test [2], 18.5 nM; against PARP1, 2860 nM; against PARP2 it was 471 nM; in test [4] it was 56.6 nM. Also, the EC50 in test [3] stood at 1230 nM.
